Measurements taken from ChEMBL document CHEMBL1140084, “Discovery and evaluation of 4-(2-(4-chloro-1H-pyrazol-1-yl)ethylamino)-3-(6-(1-(3-fluoropropyl)piperidin-4-yl)-4-methyl-1H-benzo[d]imidazol-2-yl)pyridin-2(1H)-one (BMS-695735), an orally efficacious inhibitor of insulin-like growth factor-1 receptor kinase with broad spectrum in vivo antitumor …” (J Med Chem, 2008).
Converted amounts (≈) assume the structure as drawn. One block for each compound: values may come before it. The source made the active and inactive calls. The rule behind the calls is not given here.

Assays:
COLO 205 = assay: Antitumor activity against human Colo205 cell xenografted nu/nu athymic mouse at 100 mg/kg, po bid for 21 days; type: functional; conditions: COLO 205, 504 h, read-out: TGI
[1] = biological target: Protein kinase C delta type (Homo sapiens, UniProt Q05655); assay: Inhibition of PKCdelta
Cytochrome P450 2D6 = Cytochrome P450 2D6 (Homo sapiens, UniProt P10635); assay: Inhibition of human recombinant CYP2D6 in human liver microsomes; type: ADME, Microsome
[2] = Cmax in mouse at 50 mg/kg, po; type: ADME, organism-based; parameters: dose 50 mg/kg, route oral; conditions: in vivo
Cytochrome P450 3A4 = Cytochrome P450 3A4 (Homo sapiens, UniProt P08684); assay: Inhibition of human recombinant CYP3A4 in human liver microsomes using BFC as a substrate
[3] = Oral bioavailability in monkey at 10 mg/kg; type: ADME, organism-based, Macaca mulatta; conditions: rhesus monkey, in vivo
[4] = Half life in monkey at 2 mg/kg, iv and 10 mg/kg, po; type: ADME, organism-based, Macaca mulatta; conditions: rhesus monkey, in vivo
[5] = Volume of distribution at steady state in mouse at 5 mg/kg, iv and 50 mg/kg, po; type: ADME, organism-based; conditions: in vivo, read-out: Vdss
[6] = Total clearance in rat at 2 mg/kg, iv and 10 mg/kg, po; type: ADME, organism-based; conditions: in vivo
[7] = Antiproliferative activity against transgenic mouse SAL cells overexpressing human IGF1R assessed as [3H]thymidine incorporation after 72 hrs
[8] = Volume of distribution at steady state in rat at 2 mg/kg, iv and 10 mg/kg, po; type: ADME, organism-based; conditions: in vivo, read-out: Vdss
Mus musculus [9] = assay: Induction of glucose homeostasis in mouse assessed as glucose elevation at 50 mg/kg after glucose challenge by OGTT; type: functional, organism-based; parameters: dose 50 mg/kg
[10] = Apparent permeability across human CaCo2 cells; type: ADME, cell-based; conditions: Caco-2
[11] = Protein binding in mouse plasma at 10 uM by equilibrium dialysis; type: ADME, cell-free; conditions: read-out: PPB (converted)
Mus musculus [12] = assay: Induction of glucose homeostasis in mouse assessed as glucose elevation at 100 mg/kg after glucose challenge by OGTT; type: functional, organism-based; parameters: dose 100 mg/kg
[13] = Total clearance in monkey at 2 mg/kg, iv and 10 mg/kg, po; type: ADME, organism-based, Macaca mulatta; conditions: rhesus monkey, in vivo
Cytochrome P450 2C19 = Cytochrome P450 2C19 (Homo sapiens, UniProt P33261); assay: Inhibition of human recombinant CYP2C19 in human liver microsomes; type: ADME, Microsome
Cytochrome P450 1A2 = Cytochrome P450 1A2 (Homo sapiens, UniProt P05177); assay: Inhibition of human recombinant CYP1A2 in human liver microsomes; type: ADME, Microsome
[14] = biological target: Mitogen-activated protein kinase 14 (Homo sapiens, UniProt Q16539); assay: Inhibition of p38alpha
[15] = biological target: T1, Nuclear receptor subfamily 1 group I member 2 (Homo sapiens, UniProt O75469); assay: Induction of PXR transactivation
T1 sequence (O75469 whole entry): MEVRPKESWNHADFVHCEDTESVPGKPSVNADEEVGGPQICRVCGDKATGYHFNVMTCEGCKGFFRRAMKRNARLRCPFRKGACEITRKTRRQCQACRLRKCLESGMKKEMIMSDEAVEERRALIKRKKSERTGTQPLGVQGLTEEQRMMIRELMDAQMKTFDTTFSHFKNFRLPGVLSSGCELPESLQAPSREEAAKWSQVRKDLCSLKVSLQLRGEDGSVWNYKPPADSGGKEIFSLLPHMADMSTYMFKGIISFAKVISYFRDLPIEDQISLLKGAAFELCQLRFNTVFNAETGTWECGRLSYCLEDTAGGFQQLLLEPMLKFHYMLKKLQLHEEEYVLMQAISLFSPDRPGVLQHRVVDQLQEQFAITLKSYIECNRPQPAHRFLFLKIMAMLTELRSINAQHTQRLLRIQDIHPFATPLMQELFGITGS

[16] = Half life in rat at 2 mg/kg, iv and 10 mg/kg, po; type: ADME, organism-based; conditions: in vivo
[17] = Antitumor activity against human Geo cell xenografted nu/nu athymic mouse at 100 mg/kg, po bid for 21 days; type: functional; conditions: 504 h, read-out: TGI
[18] = Half life in dog at 2 mg/kg, iv and 10 mg/kg, po; type: ADME, organism-based, Canis lupus familiaris; conditions: in vivo
[19] = Antitumor activity against human JJN3 cell xenografted nu/nu athymic mouse at 100 mg/kg, po bid for 21 days; type: functional; conditions: JJN-3, 504 h, read-out: TGI
[20] = biological target: Protein kinase C alpha type (Homo sapiens, UniProt P17252); assay: Inhibition of PKCalpha
Hepatocyte [21] = assay: Cytotoxicity against human hepatocytes; type: cell-based
[22] = biological target: Receptor tyrosine-protein kinase erbB-2 (Homo sapiens, UniProt P04626); assay: Inhibition of GST-tagged HER2
[23] = biological target: Vascular endothelial growth factor receptor 2 (Homo sapiens, UniProt P35968); assay: Inhibition of GST-tagged KDR
[24] = Inhibition of His-tagged GSK3
[25] = AUC in mouse at 20 mg/kg after 4 hrs; type: ADME, organism-based; parameters: time < 4 hr, dose 20 mg/kg; conditions: plasma
[26] = Total clearance in mouse at 5 mg/kg, iv and 50 mg/kg, po; type: ADME, organism-based; conditions: in vivo
[27] = biological target: Hepatocyte growth factor receptor (Homo sapiens, UniProt P08581); assay: Inhibition of GST-tagged Met
[28] = biological target: Tyrosine-protein kinase ITK/TSK (Homo sapiens, UniProt Q08881); assay: Inhibition of GST-tagged Emt
[29] = Oral bioavailability in rat at 10 mg/kg; type: ADME, organism-based; conditions: in vivo
[30] = Half life in mouse at 5 mg/kg, iv and 50 mg/kg, po; type: ADME, organism-based; conditions: in vivo
[31] = biological target: RAC-alpha serine/threonine-protein kinase (Homo sapiens, UniProt P31749); assay: Inhibition of AKT
[32] = Inhibition of GST-tagged IKK
[33] = Inhibition of IRK
Phosphodiesterase 4 = Phosphodiesterase 4 (Homo sapiens, UniProt P27815+Q08499+Q07343+Q08493); assay: Inhibition of human PDE4 in U937 cells; type: cell-based; conditions: u-937
[34] = biological target: Epidermal growth factor receptor (Homo sapiens, UniProt P00533); assay: Inhibition of GST-tagged HER1
[35] = Oral bioavailability in mouse at 50 mg/kg; type: ADME, organism-based; conditions: in vivo
[36] = Cmax in monkey at 10 mg/kg, po; type: ADME, organism-based, Macaca mulatta; parameters: dose 10 mg/kg, route oral; conditions: rhesus monkey, in vivo
[37] = Cmax in rat at 10 mg/kg, po; type: ADME, organism-based; parameters: dose 10 mg/kg, route oral; conditions: in vivo
[38] = Cmax in dog at 10 mg/kg, po; type: ADME, organism-based, Canis lupus familiaris; parameters: dose 10 mg/kg, route oral; conditions: in vivo
[39] = biological target: Fibroblast growth factor receptor 1 (Homo sapiens, UniProt P11362); assay: Inhibition of human recombinant FGFR1
[40] = biological target: Insulin-like growth factor 1 receptor (Homo sapiens, UniProt P08069); assay: Inhibition of human IGF1R expressed in transgenic mouse IGFSal cells; type: cell-based
[41] = biological target: cAMP-dependent protein kinase catalytic subunit beta (Homo sapiens, UniProt P22694); assay: Inhibition of PKA-B
[42] = Oral bioavailability in dog at 10 mg/kg; type: ADME, organism-based, Canis lupus familiaris; conditions: in vivo
[43] = Volume of distribution at steady state in monkey at 2 mg/kg, iv and 10 mg/kg, po; type: ADME, organism-based, Macaca mulatta; conditions: rhesus monkey, in vivo, read-out: Vdss
Mus musculus [44] = assay: Induction of glucose homeostasis in mouse assessed as glucose elevation at 50 to 100 mg/kg prior to glucose challenge by OGTT; type: functional, organism-based
Focal adhesion kinase 1 = Focal adhesion kinase 1 (Homo sapiens, UniProt Q05397)
[45] = Aqueous solubility of the compound; type: physicochemical; conditions: buffer
[46] = biological target: MAP kinase-activated protein kinase 2 (Homo sapiens, UniProt P49137); assay: Inhibition of MK2
[47] = Total clearance in dog at 2 mg/kg, iv and 10 mg/kg, po; type: ADME, organism-based, Canis lupus familiaris; conditions: in vivo
[48] = Volume of distribution at steady state in dog at 2 mg/kg, iv and 10 mg/kg, po; type: ADME, organism-based, Canis lupus familiaris; conditions: in vivo, read-out: Vdss
Cytochrome P450 2C9 = Cytochrome P450 2C9 (Homo sapiens, UniProt P11712); assay: Inhibition of human recombinant CYP2C9 in human liver microsomes; type: ADME, Microsome
[49] = Antitumor activity against mouse IGFSal cell xenografted nu/nu athymic mouse at 50 mg/kg, po bid for 5 days; type: functional; conditions: 120 h, read-out: TGI
Hepatocyte [50] = assay: Increase in CYP3A4 mRNA expression level in human hepatocytes; type: functional, cell-based
[51] = Protein binding in human plasma at 10 uM; type: ADME, cell-free; conditions: read-out: PPB
[52] = biological target: PXR (nuclear receptor subfamily 1 group I member 2) (Homo sapiens, UniProt O75469); assay: Induction of PXR transactivation at 10 uM relative to rifampicin; conditions: read-out: Activity

Cytochrome P450 3A4, sequence (P08684 whole entry): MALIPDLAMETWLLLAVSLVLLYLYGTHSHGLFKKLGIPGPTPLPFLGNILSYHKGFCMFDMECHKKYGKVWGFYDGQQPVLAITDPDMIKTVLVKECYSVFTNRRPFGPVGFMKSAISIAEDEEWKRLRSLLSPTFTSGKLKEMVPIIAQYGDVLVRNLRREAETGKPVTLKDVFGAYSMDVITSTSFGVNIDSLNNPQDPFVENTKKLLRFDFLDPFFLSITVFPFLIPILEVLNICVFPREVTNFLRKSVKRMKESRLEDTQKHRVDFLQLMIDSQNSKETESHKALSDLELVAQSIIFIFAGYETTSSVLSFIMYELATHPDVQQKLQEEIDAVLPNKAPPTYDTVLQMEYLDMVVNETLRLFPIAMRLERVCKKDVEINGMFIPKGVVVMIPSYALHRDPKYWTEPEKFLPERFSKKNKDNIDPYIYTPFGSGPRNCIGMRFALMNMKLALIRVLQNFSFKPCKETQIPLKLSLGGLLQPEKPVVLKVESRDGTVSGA
Vascular endothelial growth factor receptor 2, sequence (P35968 whole entry): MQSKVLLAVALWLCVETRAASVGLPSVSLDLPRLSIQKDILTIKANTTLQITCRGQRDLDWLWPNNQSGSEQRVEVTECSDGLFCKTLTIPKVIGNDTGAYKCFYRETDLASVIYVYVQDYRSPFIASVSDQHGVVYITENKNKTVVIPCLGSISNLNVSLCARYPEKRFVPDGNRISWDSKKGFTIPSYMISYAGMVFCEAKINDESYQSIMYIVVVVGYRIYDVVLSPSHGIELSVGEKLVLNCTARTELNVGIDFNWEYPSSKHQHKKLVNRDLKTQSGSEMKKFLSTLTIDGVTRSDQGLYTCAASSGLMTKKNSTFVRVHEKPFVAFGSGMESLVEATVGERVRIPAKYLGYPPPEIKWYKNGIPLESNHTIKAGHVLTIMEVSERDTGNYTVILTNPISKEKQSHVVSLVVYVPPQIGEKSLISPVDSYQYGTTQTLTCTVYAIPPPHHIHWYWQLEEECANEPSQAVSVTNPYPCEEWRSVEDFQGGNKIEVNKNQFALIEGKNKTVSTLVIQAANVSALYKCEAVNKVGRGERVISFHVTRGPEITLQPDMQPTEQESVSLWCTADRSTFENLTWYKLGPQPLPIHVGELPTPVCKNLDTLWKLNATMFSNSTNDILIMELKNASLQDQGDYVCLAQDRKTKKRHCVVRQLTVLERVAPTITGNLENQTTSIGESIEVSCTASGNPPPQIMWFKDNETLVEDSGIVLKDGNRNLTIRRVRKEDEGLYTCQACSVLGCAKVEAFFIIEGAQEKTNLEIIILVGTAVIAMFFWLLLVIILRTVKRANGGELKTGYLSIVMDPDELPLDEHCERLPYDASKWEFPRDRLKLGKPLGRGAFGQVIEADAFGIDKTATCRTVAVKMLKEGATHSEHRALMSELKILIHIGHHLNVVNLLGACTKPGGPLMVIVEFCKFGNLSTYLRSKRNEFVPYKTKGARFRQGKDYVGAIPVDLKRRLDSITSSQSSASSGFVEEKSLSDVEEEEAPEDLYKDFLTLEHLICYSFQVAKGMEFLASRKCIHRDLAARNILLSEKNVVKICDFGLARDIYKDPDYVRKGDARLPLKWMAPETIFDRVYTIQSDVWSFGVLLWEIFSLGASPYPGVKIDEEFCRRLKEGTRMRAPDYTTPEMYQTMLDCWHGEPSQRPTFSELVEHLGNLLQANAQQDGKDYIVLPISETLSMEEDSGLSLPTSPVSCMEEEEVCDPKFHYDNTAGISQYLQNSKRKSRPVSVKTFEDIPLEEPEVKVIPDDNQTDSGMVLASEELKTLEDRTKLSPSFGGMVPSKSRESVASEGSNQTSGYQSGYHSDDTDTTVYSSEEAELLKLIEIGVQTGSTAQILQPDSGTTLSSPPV
Mitogen-activated protein kinase 14, sequence (Q16539 whole entry): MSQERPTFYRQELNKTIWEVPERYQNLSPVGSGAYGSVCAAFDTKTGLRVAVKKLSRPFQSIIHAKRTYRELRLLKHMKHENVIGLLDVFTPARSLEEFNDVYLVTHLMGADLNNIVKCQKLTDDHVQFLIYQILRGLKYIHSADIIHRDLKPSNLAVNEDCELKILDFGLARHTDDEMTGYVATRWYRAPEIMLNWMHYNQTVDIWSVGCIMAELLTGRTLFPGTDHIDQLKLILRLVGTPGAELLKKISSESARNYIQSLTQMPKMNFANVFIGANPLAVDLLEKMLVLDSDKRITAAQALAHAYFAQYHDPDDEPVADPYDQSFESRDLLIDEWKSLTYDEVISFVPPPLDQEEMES
Epidermal growth factor receptor, sequence (P00533 whole entry): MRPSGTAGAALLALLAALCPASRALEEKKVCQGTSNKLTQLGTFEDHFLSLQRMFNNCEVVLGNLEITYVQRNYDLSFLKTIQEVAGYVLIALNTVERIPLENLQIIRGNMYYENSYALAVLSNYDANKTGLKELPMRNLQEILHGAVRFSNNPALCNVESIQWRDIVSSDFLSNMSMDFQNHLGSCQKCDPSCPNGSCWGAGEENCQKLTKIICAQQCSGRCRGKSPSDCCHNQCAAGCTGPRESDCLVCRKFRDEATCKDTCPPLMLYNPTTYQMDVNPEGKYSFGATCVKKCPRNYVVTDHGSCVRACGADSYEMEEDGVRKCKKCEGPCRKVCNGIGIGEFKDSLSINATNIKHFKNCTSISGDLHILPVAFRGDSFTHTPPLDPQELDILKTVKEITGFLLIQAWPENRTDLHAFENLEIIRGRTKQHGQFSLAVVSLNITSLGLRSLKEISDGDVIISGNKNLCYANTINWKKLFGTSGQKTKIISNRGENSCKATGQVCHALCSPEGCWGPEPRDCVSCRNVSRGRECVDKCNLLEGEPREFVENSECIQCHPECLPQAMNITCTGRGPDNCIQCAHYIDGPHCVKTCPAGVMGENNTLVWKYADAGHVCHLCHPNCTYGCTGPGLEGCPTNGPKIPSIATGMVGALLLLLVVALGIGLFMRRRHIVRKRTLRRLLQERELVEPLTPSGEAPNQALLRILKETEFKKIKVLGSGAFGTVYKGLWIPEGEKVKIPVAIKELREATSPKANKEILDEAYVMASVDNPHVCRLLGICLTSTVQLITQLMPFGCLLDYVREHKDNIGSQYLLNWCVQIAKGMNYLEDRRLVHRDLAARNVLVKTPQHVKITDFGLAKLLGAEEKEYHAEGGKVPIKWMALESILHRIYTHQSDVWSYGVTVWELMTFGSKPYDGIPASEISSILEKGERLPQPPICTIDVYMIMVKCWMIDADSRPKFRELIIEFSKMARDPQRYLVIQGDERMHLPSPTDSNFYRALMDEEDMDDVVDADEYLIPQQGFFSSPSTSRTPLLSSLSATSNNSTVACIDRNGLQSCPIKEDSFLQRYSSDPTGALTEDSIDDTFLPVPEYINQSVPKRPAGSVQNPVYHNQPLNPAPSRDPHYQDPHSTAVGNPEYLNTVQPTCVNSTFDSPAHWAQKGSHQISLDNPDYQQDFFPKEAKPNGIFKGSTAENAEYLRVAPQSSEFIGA
Hepatocyte growth factor receptor, sequence (P08581 whole entry): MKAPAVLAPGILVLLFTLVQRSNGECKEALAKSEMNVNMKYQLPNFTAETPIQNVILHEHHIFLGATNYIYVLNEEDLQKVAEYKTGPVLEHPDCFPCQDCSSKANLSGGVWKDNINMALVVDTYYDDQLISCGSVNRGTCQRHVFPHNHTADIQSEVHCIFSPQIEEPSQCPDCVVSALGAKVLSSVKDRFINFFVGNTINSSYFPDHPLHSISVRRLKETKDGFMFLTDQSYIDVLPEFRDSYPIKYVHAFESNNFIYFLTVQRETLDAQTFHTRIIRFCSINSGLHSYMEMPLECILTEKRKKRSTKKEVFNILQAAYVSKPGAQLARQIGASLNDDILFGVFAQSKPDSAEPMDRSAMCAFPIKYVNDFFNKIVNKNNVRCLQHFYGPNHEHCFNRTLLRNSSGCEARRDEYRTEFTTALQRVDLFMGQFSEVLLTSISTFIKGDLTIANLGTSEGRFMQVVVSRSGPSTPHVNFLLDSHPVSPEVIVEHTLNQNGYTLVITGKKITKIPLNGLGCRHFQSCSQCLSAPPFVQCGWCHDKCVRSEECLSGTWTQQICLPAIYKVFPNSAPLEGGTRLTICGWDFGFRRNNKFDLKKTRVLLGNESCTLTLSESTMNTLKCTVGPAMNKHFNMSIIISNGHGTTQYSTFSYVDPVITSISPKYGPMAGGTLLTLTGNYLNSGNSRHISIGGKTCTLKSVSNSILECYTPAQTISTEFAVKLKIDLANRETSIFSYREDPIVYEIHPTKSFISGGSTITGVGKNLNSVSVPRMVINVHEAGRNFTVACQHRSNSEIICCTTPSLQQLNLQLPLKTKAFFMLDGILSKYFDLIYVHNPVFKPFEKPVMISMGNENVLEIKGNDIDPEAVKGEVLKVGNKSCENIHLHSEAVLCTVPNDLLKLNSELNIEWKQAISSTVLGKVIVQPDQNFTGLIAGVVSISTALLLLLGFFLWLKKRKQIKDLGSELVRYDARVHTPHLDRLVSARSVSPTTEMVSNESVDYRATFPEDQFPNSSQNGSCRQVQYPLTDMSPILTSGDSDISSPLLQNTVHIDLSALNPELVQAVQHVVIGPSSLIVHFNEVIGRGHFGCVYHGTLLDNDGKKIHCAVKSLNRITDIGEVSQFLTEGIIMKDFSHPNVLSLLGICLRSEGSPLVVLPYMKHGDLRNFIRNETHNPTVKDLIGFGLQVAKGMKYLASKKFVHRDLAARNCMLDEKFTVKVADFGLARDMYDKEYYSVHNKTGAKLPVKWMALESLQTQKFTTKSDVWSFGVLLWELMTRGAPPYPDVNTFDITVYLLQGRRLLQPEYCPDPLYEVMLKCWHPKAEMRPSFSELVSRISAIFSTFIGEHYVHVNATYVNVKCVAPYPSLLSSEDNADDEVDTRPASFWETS

IC50 (Cytochrome P450 3A4): 23 µM
EC20 [15]: > 50 µM
AUC at 4 h [25]: 0.1 µM·h
SMILES: Cc1cc(C2CCN(CCO)CC2)cc2[nH]c(-c3c(NCCn4cc(Cl)cn4)cc[nH]c3=O)nc12
IC50 [7]: 0.241 µM

IC50 (Cytochrome P450 3A4): 11 µM
EC20 [15]: > 50 µM
SMILES: COCCN1CCC(c2cc(C)c3nc(-c4c(NC[C@@H](O)c5cccc(Cl)c5)cc[nH]c4=O)[nH]c3c2)CC1
IC50 [7]: 0.217 µM

IC50 (Cytochrome P450 3A4): 19.5 µM
fraction unbound at 10 µM [11]: 0.038
EC20 [15]: > 50 µM
AUC at 4 h [25]: 1.8 µM·h
SMILES: COCCN1CCC(c2cc(C)c3nc(-c4c(NCCn5cc(Cl)cn5)cc[nH]c4=O)[nH]c3c2)CC1
IC50 [7]: 0.046 µM

Second part, the compound before the results:

SMILES: Cc1cc(C2CCN(CCCF)CC2)cc2[nH]c(-c3c(NCCn4cc(Cl)cn4)cc[nH]c3=O)nc12
inhibition in vivo at 100 mg/kg (COLO 205): 93%
IC50 [1]: 20.3 µM
IC50 (Cytochrome P450 2D6): > 40 µM
Cmax [2]: 2300 nM
IC50 (Cytochrome P450 3A4): 26 µM
bioavailability [3]: 48%
half-life [4]: 7.3 h
Vd [5]: 18.2 L/kg
clearance [6]: 76 mL/min/kg
IC50 [7]: 0.185 µM
Vd [8]: 20 L/kg
Activity (Mus musculus [9]): inactive
Papp [10]: 10.9 ×10⁻⁶ cm/s
fraction unbound at 10 µM [11]: 0.131
Activity (Mus musculus [12]): inactive
clearance [13]: 27 mL/min/kg
IC50 (Cytochrome P450 2C19): 34 µM
IC50 (Cytochrome P450 1A2): > 40 µM
IC50 [14]: 31 µM
EC20 [15]: > 50 µM
half-life [16]: 4 h
inhibition in vivo at 100 mg/kg [17]: 73%
half-life [18]: 10.5 h
inhibition in vivo at 100 mg/kg [19]: 80%
IC50 [20]: 11 µM
Activity (Hepatocyte [21]): Non-toxic
IC50 [22]: 6 µM
IC50 [23]: 0.369 µM
IC50 [24]: 8.56 µM
AUC at 4 h [25]: 3.7 µM·h
clearance [26]: 159 mL/min/kg
IC50 [27]: 3.99 µM
IC50 [28]: 0.37 µM
bioavailability [29]: 23%
half-life [30]: 2.3 h
IC50 [31]: 48.4 µM
IC50 [32]: > 100 µM
IC50 [33]: 0.072 µM
IC50 (Phosphodiesterase 4): 4 µM
IC50 [34]: 21 µM
bioavailability [35]: > 100%
Cmax [36]: 400 nM
Cmax [37]: 200 nM
Cmax [38]: 270 nM
IC50 [39]: < 5 µM
IC50 [40]: 0.034 µM
IC50 [41]: 37.7 µM
bioavailability [42]: 35%
Vd [43]: 17 L/kg
Activity (Mus musculus [44]): inactive
IC50 (Focal adhesion kinase 1): 0.165 µM
solubility [45]: 137 µg/mL (≈ 268 µM)
IC50 [46]: > 50 µM
clearance [47]: 23 mL/min/kg
Vd [48]: 21 L/kg
IC50 (Cytochrome P450 2C9): > 40 µM
inhibition in vivo at 50 mg/kg [49]: 81%

SMILES: Cc1cc(N2CCOCC2)cc2[nH]c(-c3c(NC[C@@H](O)c4cccc(Cl)c4)cc[nH]c3=O)nc12
IC50 [7]: 0.11 µM
Papp [10]: 1.8 ×10⁻⁶ cm/s
fraction unbound at 10 µM [11]: < 0.001
EC20 [15]: 1.1 µM
AUC at 4 h [25]: 50 µM·h
Activity (Hepatocyte [50]): Dose-dependent effect
fraction unbound at 10 µM [51]: < 0.002
activity at 10 µM [52]: 125%
